The results in this text go back to PMC6713165, “Identification of 1H-pyrazolo[3,4-b]pyridine derivatives as potent ALK-L1196M inhibitors” (Journal of Enzyme Inhibition and Medicinal Chemistry, 2019).

Like-named read-outs stand apart in the source and are kept apart here.

In one data set the target is ALK-C1156Y (Homo sapiens, UniProt Q9UM73, C1156Y). The data set can be described thus: Radiometric biochemical kinase assay, ALK-C1156Y. How it is done: (§1) Biochemical kinase assay was performed by methods previously reported. Kinase reactions of all test compounds except 10g were carried out at 10 µM ATP. Kinase reaction of 10g was performed at three different concentrations of ATP (10/50/100 µM).
Sequence of ALK-C1156Y (Q9UM73 19-1620 C1156Y): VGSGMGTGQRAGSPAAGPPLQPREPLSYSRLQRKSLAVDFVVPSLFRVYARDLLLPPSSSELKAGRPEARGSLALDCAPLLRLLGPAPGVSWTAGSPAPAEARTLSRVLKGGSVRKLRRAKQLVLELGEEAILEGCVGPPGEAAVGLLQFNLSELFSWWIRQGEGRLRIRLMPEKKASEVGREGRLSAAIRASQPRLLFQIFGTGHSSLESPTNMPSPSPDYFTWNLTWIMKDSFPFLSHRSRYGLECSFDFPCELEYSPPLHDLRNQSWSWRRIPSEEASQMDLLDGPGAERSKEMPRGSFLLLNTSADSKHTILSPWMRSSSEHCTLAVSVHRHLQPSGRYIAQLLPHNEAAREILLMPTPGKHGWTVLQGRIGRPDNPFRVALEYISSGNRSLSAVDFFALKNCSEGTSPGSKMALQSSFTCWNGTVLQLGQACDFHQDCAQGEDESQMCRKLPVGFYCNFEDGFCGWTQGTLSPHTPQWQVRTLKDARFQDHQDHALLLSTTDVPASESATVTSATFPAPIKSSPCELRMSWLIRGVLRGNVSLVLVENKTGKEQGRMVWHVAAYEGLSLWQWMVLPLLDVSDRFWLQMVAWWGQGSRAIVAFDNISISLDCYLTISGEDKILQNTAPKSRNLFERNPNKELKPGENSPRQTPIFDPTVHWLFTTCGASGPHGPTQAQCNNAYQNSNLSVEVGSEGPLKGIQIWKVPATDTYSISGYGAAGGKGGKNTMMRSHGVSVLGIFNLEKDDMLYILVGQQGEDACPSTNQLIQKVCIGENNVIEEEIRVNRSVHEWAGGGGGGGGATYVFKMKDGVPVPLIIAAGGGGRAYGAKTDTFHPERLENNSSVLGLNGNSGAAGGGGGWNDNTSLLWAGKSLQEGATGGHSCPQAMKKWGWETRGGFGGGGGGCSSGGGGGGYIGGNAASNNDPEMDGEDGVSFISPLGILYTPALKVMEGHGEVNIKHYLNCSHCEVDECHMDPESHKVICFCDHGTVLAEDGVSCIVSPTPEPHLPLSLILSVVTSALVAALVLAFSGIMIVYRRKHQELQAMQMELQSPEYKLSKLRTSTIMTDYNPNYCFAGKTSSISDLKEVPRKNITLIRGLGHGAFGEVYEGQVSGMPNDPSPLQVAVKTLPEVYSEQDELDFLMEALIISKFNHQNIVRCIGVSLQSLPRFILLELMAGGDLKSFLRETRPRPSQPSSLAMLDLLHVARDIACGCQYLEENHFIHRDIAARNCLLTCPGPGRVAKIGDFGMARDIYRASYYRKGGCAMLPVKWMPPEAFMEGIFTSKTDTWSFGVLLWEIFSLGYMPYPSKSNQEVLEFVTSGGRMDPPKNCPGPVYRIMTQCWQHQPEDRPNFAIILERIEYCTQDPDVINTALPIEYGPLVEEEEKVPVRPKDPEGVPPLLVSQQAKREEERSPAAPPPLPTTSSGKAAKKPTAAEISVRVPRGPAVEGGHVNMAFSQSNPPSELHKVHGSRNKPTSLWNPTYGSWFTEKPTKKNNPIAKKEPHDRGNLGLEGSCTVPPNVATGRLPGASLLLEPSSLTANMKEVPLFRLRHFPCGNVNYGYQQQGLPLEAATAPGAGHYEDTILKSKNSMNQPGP

Data set [1] addresses IRK (insulin receptor kinase) (Homo sapiens, UniProt P06213). The data set can be described thus: Biochemical kinase assay, IRK. How it is done: as §1
For another data set, the system named is Parental Ba/F3 cells. The data set is described as follows: Anti-proliferation assay (CTG), parental Ba/F3. It counts as cell-based. The note with it: Mus musculus, BaF3, 72 h, with IL-3, mean ± SD of three independent experiments, read-out: GI50 Ba/F3 cell lines Parental. The method, then: ALK wt-TEL, ALK L1196M-TEL transformed Ba/F3 and H2228 cell lines were cultured in RPMI1640 (Welgene, # LM011-01). […] Parental Ba/F3 cells were cultured in RPMI1640 media supplemented with 10% foetal bovine serum and 1% penicillin/streptomycin solution in the presence of IL-3. The cells were maintained in a humidified atmosphere containing 5% CO2 at 37 °C.
Cells (ALK wt-TEL, ALK L1196M-TEL and Parental Ba/F3: 1 × 10^4, H2228: 5 × 10^3) were plated in 96 well tissue culture plates. Each compound was added to each well at 10 dose points of three-fold serial dilution in DMSO. After treatment with each compound for 72 h, CTG assay solution (Promega, # G7572) was added to each well.

Data set [2] in a line: Permeability assessment using Caco-2 cells. It counts as in vitro ADME, human. Conditions: human. How it is done:
(§2) Stock solutions (10 mM) of reference compounds and 10g were diluted to a concentration of 10 µM with the transport buffer (HBSS + 1%BSA) and the test compounds were applied to the apical or basolateral side of the cell monolayer. […] In addition, the efflux ratio of each compound was also determined. Reference compounds and 10g were quantified by LC-MS/MS analysis based on the peak area ratio of analyte/the internal standard.

Another data set has as its system Caco-2 cells. The data set is described as follows: Permeability assessment using Caco-2 cells. It counts as in vitro ADME, human. How it is done: as §2
(In general: Passage across Caco-2 layers is used to estimate intestinal permeability.)

As a reminder, the IC50 is the concentration at which inhibition is half-maximal. Read a low IC50 as higher potency. As a reminder, the efflux ratio is a quotient of directional permeabilities that is used to spot active efflux. For orientation: Papp B→A means how fast a substance crosses the layer from the basolateral side.

Sequence of IRK (insulin receptor kinase) (P06213 28-1382): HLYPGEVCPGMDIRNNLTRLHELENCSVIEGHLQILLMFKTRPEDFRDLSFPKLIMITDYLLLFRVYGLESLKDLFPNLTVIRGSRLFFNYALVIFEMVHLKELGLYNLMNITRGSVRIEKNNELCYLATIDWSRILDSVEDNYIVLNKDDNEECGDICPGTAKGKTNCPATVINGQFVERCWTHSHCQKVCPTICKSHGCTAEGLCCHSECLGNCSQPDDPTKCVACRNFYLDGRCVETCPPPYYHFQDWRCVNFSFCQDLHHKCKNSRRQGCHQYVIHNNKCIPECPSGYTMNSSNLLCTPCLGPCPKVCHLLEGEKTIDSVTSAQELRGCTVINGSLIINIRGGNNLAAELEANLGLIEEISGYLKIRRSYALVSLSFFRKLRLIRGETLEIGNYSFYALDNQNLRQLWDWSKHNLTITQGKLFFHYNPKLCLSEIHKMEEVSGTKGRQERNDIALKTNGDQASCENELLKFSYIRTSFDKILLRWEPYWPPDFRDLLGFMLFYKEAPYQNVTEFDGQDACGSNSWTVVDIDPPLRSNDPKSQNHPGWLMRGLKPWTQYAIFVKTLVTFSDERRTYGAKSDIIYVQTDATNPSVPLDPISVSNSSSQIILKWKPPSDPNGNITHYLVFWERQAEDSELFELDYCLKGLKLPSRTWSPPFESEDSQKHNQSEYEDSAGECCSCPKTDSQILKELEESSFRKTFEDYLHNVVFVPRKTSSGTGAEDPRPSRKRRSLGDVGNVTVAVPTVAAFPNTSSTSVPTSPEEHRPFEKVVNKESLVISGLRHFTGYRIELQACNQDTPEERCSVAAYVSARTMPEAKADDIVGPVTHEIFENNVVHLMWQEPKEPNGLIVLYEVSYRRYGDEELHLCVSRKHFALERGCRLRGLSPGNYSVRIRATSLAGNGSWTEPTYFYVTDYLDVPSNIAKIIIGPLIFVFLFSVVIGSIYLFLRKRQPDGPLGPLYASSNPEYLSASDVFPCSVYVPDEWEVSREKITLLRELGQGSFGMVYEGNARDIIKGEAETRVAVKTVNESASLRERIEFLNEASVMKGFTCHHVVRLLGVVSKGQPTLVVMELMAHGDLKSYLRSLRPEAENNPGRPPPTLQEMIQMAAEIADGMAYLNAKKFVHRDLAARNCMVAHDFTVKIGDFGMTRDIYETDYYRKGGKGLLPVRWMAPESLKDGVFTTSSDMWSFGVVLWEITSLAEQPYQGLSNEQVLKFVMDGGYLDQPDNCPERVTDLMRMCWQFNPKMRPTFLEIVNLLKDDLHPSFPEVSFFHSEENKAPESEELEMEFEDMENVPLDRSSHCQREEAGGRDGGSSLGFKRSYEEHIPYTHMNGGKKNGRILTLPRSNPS

On to `CN1CCN(c2ccc(C(=O)Nc3n[nH]c4ncc(S(=O)(=O)c5cccc(F)c5)cc34)cc2)CC1` [10g, N-(5-((3-Fluorophenyl)sulfonyl)-1H-pyrazolo[3,4-b]pyridin-3-yl)-4–(4-methylpiperazin-1-yl)benzamide], for which the IC50 against ALK-C1156Y came to 1.81 nM; in data set [1], 404 nM. The GI50 with Parental Ba/F3 cells stood at 3500 ± 1130 nM. The Papp A→B at 120 min, 10 µM was 2.56 ×10⁻⁶ cm/s in data set [2] (Caco-2, Caco-2, 10 µM, 120 min, 37 °C, HBSS + 1%BSA, read-out: Mean Papp A to B) and 2.5 to 10 ×10⁻⁶ cm/s in data set [2] (Caco-2, Caco-2 permeability class from Papp (A to B), read-out: Rank Papp). Further, the recovery at 120 min, 10 µM in data set [2] (Caco-2, Caco-2, 10 µM, 120 min, read-out: Mean recovery % A to B) came to 74.2%; in data set [2] (Caco-2, Caco-2, 10 µM, 120 min, read-out: Mean recovery % B to A), 92.3%. Moreover, the efflux ratio at 120 min, 10 µM in data set [2] (Caco-2, 10 µM, 120 min) was 1.85. The Papp B→A at 120 min, 10 µM in data set [2] (Caco-2, 10 µM, 120 min, 37 °C, HBSS + 1%BSA) stood at 4.74 ×10⁻⁶ cm/s. Moreover, the “Rank Papp” value in the data set with Caco-2 cells (Caco-2 permeability class from Papp (A to B)) is reported as “moderate”. Besides, the “Rank P-gp” value in the data set on Caco-2 cells (P-gp substrate status from efflux ratio) is “not a substrate”.
